The target of this assay is T1, GluR1 flip/stargazin (AMPA receptor) in CHO-K1/GluR1 flip/stargazin-expressing cells (Homo sapiens, UniProt P42261).
T1 construct: expressed in transfected cells; host or cells: CHO-K1
T1 sequence (P42261 19-906 isoform P42261-2 limits assumed): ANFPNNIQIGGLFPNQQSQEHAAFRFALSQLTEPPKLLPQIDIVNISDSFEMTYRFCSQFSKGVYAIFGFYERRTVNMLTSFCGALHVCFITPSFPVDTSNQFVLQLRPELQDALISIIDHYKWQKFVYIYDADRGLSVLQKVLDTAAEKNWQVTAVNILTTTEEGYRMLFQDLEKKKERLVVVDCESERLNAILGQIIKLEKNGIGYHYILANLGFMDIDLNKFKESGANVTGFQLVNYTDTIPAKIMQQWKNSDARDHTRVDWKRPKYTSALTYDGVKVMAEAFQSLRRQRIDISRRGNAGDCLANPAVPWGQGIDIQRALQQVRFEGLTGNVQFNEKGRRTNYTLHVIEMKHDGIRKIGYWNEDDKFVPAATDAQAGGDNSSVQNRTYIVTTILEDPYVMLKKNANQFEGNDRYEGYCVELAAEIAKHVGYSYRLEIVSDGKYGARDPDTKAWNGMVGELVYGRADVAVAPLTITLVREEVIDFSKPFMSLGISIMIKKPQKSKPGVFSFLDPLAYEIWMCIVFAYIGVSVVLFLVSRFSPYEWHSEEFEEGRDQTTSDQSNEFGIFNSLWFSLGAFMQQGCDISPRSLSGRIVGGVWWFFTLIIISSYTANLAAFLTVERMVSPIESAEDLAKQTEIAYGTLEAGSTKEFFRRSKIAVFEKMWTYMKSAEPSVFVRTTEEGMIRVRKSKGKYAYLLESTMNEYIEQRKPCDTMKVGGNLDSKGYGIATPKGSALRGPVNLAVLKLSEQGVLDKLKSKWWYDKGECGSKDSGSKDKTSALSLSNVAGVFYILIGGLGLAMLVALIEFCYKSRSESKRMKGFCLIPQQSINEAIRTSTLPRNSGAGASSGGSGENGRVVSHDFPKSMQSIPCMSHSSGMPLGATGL
T1 sequence (Q9Y698 whole entry partner): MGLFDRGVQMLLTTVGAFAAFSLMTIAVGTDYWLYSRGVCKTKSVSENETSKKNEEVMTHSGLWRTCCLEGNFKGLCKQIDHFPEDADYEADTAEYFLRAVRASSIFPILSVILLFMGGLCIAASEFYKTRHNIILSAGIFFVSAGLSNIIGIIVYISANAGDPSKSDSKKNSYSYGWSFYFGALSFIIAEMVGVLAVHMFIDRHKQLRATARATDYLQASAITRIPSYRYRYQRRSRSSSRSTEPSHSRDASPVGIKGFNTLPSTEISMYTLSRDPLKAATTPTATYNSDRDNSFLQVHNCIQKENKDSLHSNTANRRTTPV
Description: AMPA receptor function-enhancing activity of compound, using calcium influx as an index. Particulars: test compound final concentration 30 μM with 3 mM glutamic acid, 100% = 3 mM glutamic acid + 300 μM cyclothiazide. In kind it is cell-based. The source says:
Human GluR1 flip cDNA was amplified by PCR method using forward primer […] (SEQ ID NO: 1) and reverse primer […] (SEQ ID NO: 2) artificially synthesized using human brain-derived cDNA (BD Bioscience) as a template. The amplified product was digested with restriction enzymes EcoRI, NotI (TAKARA SHUZO CO. LTD.) and incorporated into the same site of pcDNA3.1(+) (Invitrogen) to construct pcDNA3.1(+)/human GluR1 flip gene. Human stargazin cDNA was amplified by PCR method using forward primer […] (SEQ ID NO: 3) and reverse primer […] (SEQ ID NO: 4) artificially synthesized using human hippocampus cDNA as a template. The amplified product was digested with restriction enzymes XhoI, BamHI (TAKARA SHUZO CO. LTD.) and incorporated into the same site of pcDNA3.1(−) (Invitrogen) to construct pcDNA3.1 Zeo(−)/human stargazing gene.
CHO-K1 cells passaged in a culture medium (Ham's F12 medium (Invitrogen) added with 10% inactivated fetal bovine serum (Morgate) and penicillin, streptomycin (Invitrogen)) were detached using 0.05% trypsin and 0.53 mM EDTA (Invitrogen) diluted with D-PBS(−). The detached cells were suspended in a culture medium, and recovered by centrifugation at 1,000 rpm. The recovered cells were re-suspended in D-PBS(−) and added into 0.4 cm electroporation cuvette (BioRad). pcDNA3.1(+)/human GluR1 flip gene (5 μg) and pcDNA3.1 Zeo(−)/human stargazin gene (15 μg) were added, and introduced into CHO-K1 cells under the conditions of […], […] and using Gene Pulser II (BioRad). The introduced cells were cultured overnight in a culture medium. The next day, using a selection medium (culture medium added with zeocin (Invitrogen) at 250 μg/mL), the cells were plated in a 96 well plate at 250 cells/well. The clones showing drug resistance were selected, and GluR1 flip/stargazin expression clones were selected by an assay method shown below using calcium influx as an index.
CHO-K1/GluR1 flip/stargazin-expressing cells were plated on a 96 well black bottom transparent plate (coaster) at 3×10^4 cells/well, and cultured for 2 days in a CO2 incubator (SANYO ELECTRIC Co. Ltd.) at 37° C. The medium of the cell plate was removed, a calcium indicator (Calcium4 Assay Kit, Molecular Device) dissolved in a liquid obtained by adding 1.25 mM probenecid (Invitrogen) to an assay buffer (140 mM NaCl, 5 mM KCl, 10 mM Glucose, 2 mM CaCl2, 1 mM MgCl2, 10 mM HEPES, pH 7.4, 0.1% BSA (SIGMA)) was added at 100 μL/well, and left in a CO2 incubator at 37° C. for 1 hr. A cell plate was set on CellLux (PerkinElmer), a mixture (50 μL) of 9 mM glutamic acid (final concentration 3 mM) diluted with an assay buffer and a test compound (test compound final concentration 30 μM) was added, and variation in the amount of fluorescence was measured for 2 min. The variation of fluorescence level of a well added with final concentration 3 mM glutamic acid and 300 μM cyclothiazide (TOCRIS, prepared from 100 mM dimethyl sulfoxide solution) was defined as 100%, the variation of fluorescence level of a well containing final concentration 3 mM glutamic acid and 0.33% dimethyl sulfoxide was defined as 0%, and the activity of the m compound was calculated by the following formula. activity (%)=(X−C)/(T−C)×100 T: variation of fluorescence level of well added with final concentration 3 mM of glutamic acid and 300 μM cyclothiazide C: variation of fluorescence level of well added with final concentration 3 mM of glutamic acid alone X: variation of fluorescence level of well added with final concentration 3 mM of glutamic acid and 30 μM test compound
As to `Cc1ccc(Oc2ccc(C34CCC(CC3)N3CCS(=O)(=O)N=C34)cc2)cc1C#N` [Example 47, 5-(4-(2,2-dioxido-3,4,7,8-tetrahydro-6,9-ethanopyrido[2,1-c][1,2,4]thiadiazin-9(6H)-yl)phenoxy)-2-methylbenzonitrile], the “activity (%)” value is listed as 87%.
The result for `O=S1(=O)CCN2C(=N1)C1(c3ccc(Oc4ncccn4)cc3)CCC2CC1` [Example 23, 9-(4-(pyrimidin-2-yloxy)phenyl)-3,4,6,7,8,9-hexahydro-6,9-ethanopyrido[2,1-c][1,2,4]thiadiazine 2,2-dioxide] reads 61%; that for `O=S1(=O)CCN2C(=N1)C1(c3ccc(OCC4CCCO4)cc3)CCC2CC1` (stereo not shown) [Example 38, 9-(4-(tetahydrofuran-2-ylmethoxy)phenyl)-3,4,6,7,8,9-hexahydro-6,9-ethanopyrido[2,1-c][1,2,4]thiadiazine 2,2-dioxide], 87%.
The value for `CC(F)(F)c1cccc(Oc2ccc(C34CCC(CC3)N3CCS(=O)(=O)N=C34)cc2)c1` [Example 2, 9-(4-(3-(1,1-difluoroethyl)phenoxy)phenyl)-3,4,6,7,8,9-hexahydro-6,9-ethanopyrido[2,1-c][1,2,4]thiadiazine 2,2-dioxide] was 74%.
The value for `O=S1(=O)CCN2C(=N1)C1(c3ccc(Oc4cc(C(F)(F)F)ccn4)cc3)CCC2CC1` [Example 15, 9-(4-((4-(trifluoromethyl)pyridin-2-yl)oxy)phenyl)-3,4,6,7,8,9-hexahydro-6,9-ethanopyrido[2,1-c][1,2,4]thiadiazine 2,2-dioxide] was 92%.
With `O=S1(=O)CCN2C(=N1)C1(c3ccc(OCc4cccc(Cl)c4)cc3)CCC2CC1` [Example 30, 9-(4-((3-chlorobenzyl)oxy)phenyl)-3,4,6,7,8,9-hexahydro-6,9-ethanopyrido[2,1-c][1,2,4]thiadiazine 2,2-dioxide], the “activity (%)” value is reported as 22%.
For `N#Cc1cccc(Oc2ccc(C34CCC(CC3)N3CCS(=O)(=O)N=C34)cc2)c1` [Example 16, 3-(4-(2,2-dioxido-3,4,7,8-tetrahydro-6,9-ethanopyrido[2,1-c][1,2,4]thiadiazin-9(6H)-yl)phenoxy)benzonitrile], the “activity (%)” value amounted to 87%.
Take `O=S1(=O)CCN2CCCN(c3ccc(Oc4ccc(Cl)cc4)cc3)C2=N1` [Example 45, 9-(4-(4-chlorophenoxy)phenyl)-3,4,6,7,8,9-hexahydropyrimido[2,1-c][1,2,4]thiadiazine 2,2-dioxide]: the “activity (%)” value turned out to be 77%.
Regarding `O=S1(=O)CCN2C(=N1)C1(c3ccc(Oc4ccc(Cl)cc4)cc3)CCC2CC1` [Example 1, 9-(4-(4-chlorophenoxy)phenyl)-3,4,6,7,8,9-hexahydro-6,9-ethanopyrido[2,1-c][1,2,4]thiadiazine 2,2-dioxide], the “activity (%)” value amounted to 26%.
The result for `CC(C)COc1ccc(C23CCC(CC2)N2CCS(=O)(=O)N=C23)cc1` [Example 28, 9-(4-isobutoxyphenyl)-3,4,6,7,8,9-hexahydro-6,9-ethanopyrido[2,1-c][1,2,4]thiadiazine 2,2-dioxide] reads 91%.

For the origin of these results see patent US9493484B2, “Heterocyclic compound and use thereof” (Takeda Pharmaceutical Company Limited, priority 2012, dated 2016).
